According to article PMC6055169 (Proceedings of the National Academy of Sciences of the …, 2018):
Like-named read-outs stand apart in the source and are kept apart here. Values belong to the compound of their own block, whether it stands above or below them.

Columns and labels:
Assay type in all cases: cell-based
TRPV1 [1] = biological target: T1, TRPV1 (Mus musculus, UniProt Q704Y3); details: HEK293-A, read-out: % reduction at 50 μM
TRPV1 [2] = biological target: T1, TRPV1; assay: Fluo-4 calcium imaging in TRPV1-transfected HEK293A cells, […]
TRPV1 [3] = biological target: T1, TRPV1
TRPA1 [4] = biological target: T2, TRPA1 (Mus musculus, UniProt Q8BLA8); details: HEK293-A, read-out: % reduction at 50 μM
T2 sequence (Q8BLA8 whole entry): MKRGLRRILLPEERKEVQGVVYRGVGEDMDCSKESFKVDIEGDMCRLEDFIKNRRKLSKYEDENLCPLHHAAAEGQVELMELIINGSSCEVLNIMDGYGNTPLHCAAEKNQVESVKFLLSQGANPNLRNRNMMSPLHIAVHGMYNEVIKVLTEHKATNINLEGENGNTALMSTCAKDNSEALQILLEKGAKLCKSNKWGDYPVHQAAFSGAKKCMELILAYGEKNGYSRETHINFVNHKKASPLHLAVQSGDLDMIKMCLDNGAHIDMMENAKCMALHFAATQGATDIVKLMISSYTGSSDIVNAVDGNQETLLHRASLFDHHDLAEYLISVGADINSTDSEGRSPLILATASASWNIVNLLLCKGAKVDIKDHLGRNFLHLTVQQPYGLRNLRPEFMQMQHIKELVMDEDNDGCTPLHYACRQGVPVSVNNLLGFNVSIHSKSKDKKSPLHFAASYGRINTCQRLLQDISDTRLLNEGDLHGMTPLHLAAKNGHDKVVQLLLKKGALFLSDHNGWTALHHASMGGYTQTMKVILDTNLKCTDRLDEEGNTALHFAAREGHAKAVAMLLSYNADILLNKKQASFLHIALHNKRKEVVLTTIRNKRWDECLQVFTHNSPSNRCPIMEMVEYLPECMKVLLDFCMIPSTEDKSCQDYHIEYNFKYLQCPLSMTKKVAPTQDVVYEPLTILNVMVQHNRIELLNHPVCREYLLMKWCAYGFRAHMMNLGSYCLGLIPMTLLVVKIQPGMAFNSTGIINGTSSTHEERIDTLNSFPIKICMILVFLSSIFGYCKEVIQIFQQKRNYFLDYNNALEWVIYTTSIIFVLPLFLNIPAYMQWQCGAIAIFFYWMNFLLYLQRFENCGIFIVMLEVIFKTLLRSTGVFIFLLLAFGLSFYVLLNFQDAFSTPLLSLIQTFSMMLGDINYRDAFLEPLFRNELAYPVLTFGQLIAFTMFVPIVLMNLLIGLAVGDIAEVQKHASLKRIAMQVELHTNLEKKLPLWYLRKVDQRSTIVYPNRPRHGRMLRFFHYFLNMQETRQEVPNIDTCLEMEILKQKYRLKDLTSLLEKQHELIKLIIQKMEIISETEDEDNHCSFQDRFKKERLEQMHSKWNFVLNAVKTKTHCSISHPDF

TRPA1 [5] = biological target: T2, TRPA1; details: HEK293-A, read-out: % reduction at 50 μM; remark: listed apart in the source
TRPV4 = TRPV4 (Rattus norvegicus, UniProt Q9ERZ8); assay: Fluo-4 calcium imaging in transfected HEK293A cells, agonist at […]
Chain of TRPV4 (Q9ERZ8 whole entry): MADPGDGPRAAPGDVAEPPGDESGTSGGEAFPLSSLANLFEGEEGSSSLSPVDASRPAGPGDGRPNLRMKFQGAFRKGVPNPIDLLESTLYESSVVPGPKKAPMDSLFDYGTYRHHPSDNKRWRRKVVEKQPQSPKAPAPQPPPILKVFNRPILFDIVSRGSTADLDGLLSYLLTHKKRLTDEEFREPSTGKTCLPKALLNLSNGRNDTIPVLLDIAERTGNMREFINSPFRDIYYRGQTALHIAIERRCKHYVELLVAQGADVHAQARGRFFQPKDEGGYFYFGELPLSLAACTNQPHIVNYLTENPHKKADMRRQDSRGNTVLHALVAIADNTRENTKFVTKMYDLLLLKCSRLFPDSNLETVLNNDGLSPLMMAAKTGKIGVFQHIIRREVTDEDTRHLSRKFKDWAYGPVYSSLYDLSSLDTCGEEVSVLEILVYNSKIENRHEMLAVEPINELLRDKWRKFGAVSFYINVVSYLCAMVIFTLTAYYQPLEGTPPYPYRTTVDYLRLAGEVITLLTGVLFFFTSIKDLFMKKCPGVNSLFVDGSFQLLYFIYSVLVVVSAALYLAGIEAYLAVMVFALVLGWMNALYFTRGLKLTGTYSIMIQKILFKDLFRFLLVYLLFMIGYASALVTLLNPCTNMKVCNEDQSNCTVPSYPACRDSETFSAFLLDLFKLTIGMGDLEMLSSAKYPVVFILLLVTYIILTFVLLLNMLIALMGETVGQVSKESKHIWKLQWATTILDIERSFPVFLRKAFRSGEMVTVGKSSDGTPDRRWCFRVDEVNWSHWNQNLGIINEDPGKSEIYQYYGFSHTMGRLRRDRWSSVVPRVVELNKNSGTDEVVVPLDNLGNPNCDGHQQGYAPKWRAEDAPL

TRPA1 [6] = biological target: T2, TRPA1; assay: as above
TRPV1 [7] = biological target: T1, TRPV1; assay: as above

T1 sequence (Q704Y3 whole entry): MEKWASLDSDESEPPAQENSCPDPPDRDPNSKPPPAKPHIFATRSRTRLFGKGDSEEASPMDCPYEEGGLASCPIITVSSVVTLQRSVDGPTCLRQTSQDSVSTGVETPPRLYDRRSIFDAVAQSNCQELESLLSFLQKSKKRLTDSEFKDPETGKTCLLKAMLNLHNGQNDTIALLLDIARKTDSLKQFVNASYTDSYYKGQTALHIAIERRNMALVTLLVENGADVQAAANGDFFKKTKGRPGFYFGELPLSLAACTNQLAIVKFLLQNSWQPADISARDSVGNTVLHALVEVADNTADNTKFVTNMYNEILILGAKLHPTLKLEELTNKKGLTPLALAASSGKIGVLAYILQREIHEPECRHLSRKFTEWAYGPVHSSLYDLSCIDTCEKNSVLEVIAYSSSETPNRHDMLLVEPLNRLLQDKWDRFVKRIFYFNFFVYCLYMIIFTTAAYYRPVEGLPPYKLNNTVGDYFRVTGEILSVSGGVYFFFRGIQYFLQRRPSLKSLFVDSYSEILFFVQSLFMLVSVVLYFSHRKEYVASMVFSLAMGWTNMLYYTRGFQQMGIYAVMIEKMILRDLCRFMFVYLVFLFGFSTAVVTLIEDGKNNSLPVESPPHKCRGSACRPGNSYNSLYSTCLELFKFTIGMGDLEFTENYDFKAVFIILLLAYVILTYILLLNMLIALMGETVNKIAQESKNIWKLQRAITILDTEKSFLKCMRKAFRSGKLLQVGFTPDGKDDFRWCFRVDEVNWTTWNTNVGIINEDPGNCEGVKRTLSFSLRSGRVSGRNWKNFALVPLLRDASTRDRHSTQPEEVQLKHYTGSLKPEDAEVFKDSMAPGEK

- inhibition at 50 µM (TRPV1 [1]): 49 ± 7%
Structure (SMILES): CCCCCCCC/C=C\CCCCCCCC(=O)N[C@@H](CC(N)=O)C(=O)O [C18:1-Asn]

Structure (SMILES): CCCCCCCC/C=C\CCCCCCCC(=O)N[C@H](CCC(N)=O)C(=O)O [C18:1-D-Gln]
- Fluo-4 calcium imaging in TRPV1-transfected HEK293A cells, 50 μM (TRPV1 [2]): the unnatural enantiomer C18:1-D-Gln fully antagonized capsaicin-induced TRPV1 calcium flux

- IC50 (TRPV1 [3]): 1.3 µM
- inhibition at 50 µM (TRPA1 [4]): 94 ± 5%
Structure (SMILES): CCCCCCCC/C=C\CCCCCCCC(=O)N[C@@H](CCC(N)=O)C(=O)O [C18:1-Gln, N-oleoyl-glutamine]

Structure (SMILES): CCCCC/C=C\C/C=C\C/C=C\C/C=C\CCCC(=O)N[C@@H](Cc1ccccc1)C(=O)O [C20:4-Phe]
- inhibition at 50 µM (TRPA1 [5]): 87 ± 5%

Structure (SMILES): CCCCC/C=C\C/C=C\C/C=C\C/C=C\CCCC(=O)N[C@@H](CO)C(=O)O [C20:4-Ser]
- inhibition at 50 µM (TRPA1 [5]): 68 ± 8%

Structure (SMILES): CC(C)C[C@H](NC(=O)c1cc2ccccc2s1)C(=O)N1CCN(C(=O)[C@H](CO)NS(=O)(=O)c2ccc(Cl)cc2Cl)CC1 [GSK1016790A]
- Fluo-4 calcium imaging in transfected HEK293A cells, agonist at 0.2 μM (TRPV4): only channel-transfected, RFP^+ cells, but not untransfected, RFP^− cells, exhibited a calcium flux in response to the corresponding agonist

Structure (SMILES): C=CCN=C=S [allyl isothiocyanate]
- Fluo-4 calcium imaging in transfected HEK293A cells, agonist at 10 μM (TRPA1 [6]): only channel-transfected, RFP^+ cells, but not untransfected, RFP^− cells, exhibited a calcium flux in response to the corresponding agonist

Structure (SMILES): COc1cc(CNC(=O)CCCC/C=C/C(C)C)ccc1O [capsaicin]
- Fluo-4 calcium imaging in transfected HEK293A cells, agonist at 10 μM (TRPV1 [7]): capsaicin treatment induced a robust increase in the intracellular calcium concentration in the TRPV1-transfected, RFP^+ cells
